Assay results taken from ChEMBL document CHEMBL1135961, “Synthesis and biological activity of 8beta-substituted hydrocodone indole and hydromorphone indole derivatives” (Bioorg Med Chem Lett, 2002).

Experiments:
[1] = biological target: T1, Mu-type opioid receptor (Cavia porcellus, UniProt P97266); assay: Binding affinity for mu opioid receptor by displacing DAMGO was determined in [35S]-GTP gamma-S binding assay; Inactive; type: functional
[2] = biological target: T2, Kappa-type opioid receptor (Cavia porcellus, UniProt P41144); assay: Binding affinity for kappa opioid receptor by displacing U-69,593 was determined in [35S]GTP gamma-S binding assay; type: functional
T2 sequence (P41144 whole entry): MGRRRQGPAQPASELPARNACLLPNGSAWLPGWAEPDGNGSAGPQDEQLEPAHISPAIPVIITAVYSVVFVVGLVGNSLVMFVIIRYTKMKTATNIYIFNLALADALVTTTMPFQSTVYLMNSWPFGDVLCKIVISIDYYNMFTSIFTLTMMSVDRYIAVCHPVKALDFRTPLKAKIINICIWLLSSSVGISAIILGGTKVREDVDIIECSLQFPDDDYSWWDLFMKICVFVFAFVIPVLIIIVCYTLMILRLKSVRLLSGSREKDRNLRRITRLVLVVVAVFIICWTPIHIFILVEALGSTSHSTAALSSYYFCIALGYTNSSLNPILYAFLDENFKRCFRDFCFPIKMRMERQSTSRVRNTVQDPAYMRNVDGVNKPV

[3] = biological target: Mu-type opioid receptor (Homo sapiens) (UniProt P35372); assay: Selectivity determined for mu opioid receptor to that of delta opioid receptor
Mu-type opioid receptor (Homo sapiens), sequence (P35372 whole entry): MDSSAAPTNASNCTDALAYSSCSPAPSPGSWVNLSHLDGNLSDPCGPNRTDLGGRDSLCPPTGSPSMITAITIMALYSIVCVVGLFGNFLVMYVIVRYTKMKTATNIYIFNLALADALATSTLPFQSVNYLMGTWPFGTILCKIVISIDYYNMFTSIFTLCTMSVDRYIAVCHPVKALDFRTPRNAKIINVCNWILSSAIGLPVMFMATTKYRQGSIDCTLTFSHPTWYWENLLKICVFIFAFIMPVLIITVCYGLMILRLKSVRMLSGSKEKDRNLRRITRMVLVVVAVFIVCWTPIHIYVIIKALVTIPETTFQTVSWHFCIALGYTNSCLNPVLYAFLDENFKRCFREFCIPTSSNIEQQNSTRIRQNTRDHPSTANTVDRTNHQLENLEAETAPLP

[4] = biological target: Mu-type opioid receptor (Homo sapiens) (UniProt P35372); assay: Selectivity for mu to that of delta opioid receptor was determined in [35S]-GTP gamma-S binding assay
[5] = biological target: T1, Mu-type opioid receptor; assay: Binding affinity for mu opioid receptor by displacing DAMGO was determined in [35S]GTP gamma-S binding assay; type: functional
[6] = biological target: T2, Kappa-type opioid receptor; assay: Binding affinity for kappa opioid receptor by displacing U-69,593 was determined in [35S]-GTP gamma-S binding assay; Inactive; type: functional

T1 sequence (P97266 whole entry): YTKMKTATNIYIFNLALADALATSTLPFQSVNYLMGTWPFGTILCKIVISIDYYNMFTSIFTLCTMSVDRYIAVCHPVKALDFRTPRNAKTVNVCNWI

With `C[C@H]1c2c([nH]c3ccccc23)[C@@H]2Oc3c(O)ccc4c3C23CCN(C)C(C4)C13` (some centres not stated) as the compound, how does the Ki [1] read?
The Ki was greater than 600 nM.

What about the Ki [2] of the same compound?
The Ki was 398 nM.

What about the Ratio [3] of the same compound?
The Ratio was 322.

Which results are given for `CCCC[C@H]1c2c([nH]c3ccccc23)[C@@H]2Oc3c(O)ccc4c3C23CCN(C)C(C4)C13` (some centres not stated)?
Ki [2]: 272 nM; Ratio [3]: 50; Ratio [4]: 12; Ki [5]: 561 nM

With `CCCC[C@H]1c2c([nH]c3ccccc23)[C@@H]2Oc3c(OC)ccc4c3C23CCN(C)C(C4)C13` (some centres not stated) as the compound, how does the Ki [1] read?
The Ki was greater than 600 nM.

And the Ki [6]?
Its Ki is greater than 350 nM.

And the Ratio [3]?
The Ratio was greater than 12.

Which Ratio [3] does the source give for `C=CC(C)N1CCC23c4c5ccc(O)c4O[C@H]2c2[nH]c4ccccc4c2[C@H](C)C3C1C5` (some centres not stated) here?
Its Ratio is 120.

What does the source list for `COc1ccc2c3c1O[C@H]1c4[nH]c5ccccc5c4CC4C(C2)N(C)CCC341` (some centres not stated)?
Ki [1]: > 600 nM; Ki [6]: > 350 nM; Ratio [3]: > 53

Which results are given for `COc1ccc2c3c1O[C@H]1c4[nH]c5ccccc5c4[C@H](C)C4C(C2)N(C)CCC341` (some centres not stated)?
Ki [1]: > 600 nM; Ki [6]: > 350 nM; Ratio [3]: > 177

Which results are given for `CN1CC[C@]23c4c5ccc(O)c4O[C@H]2c2[nH]c4ccccc4c2C[C@H]3[C@H]1C5`?
Ki [2]: 731 nM; Ratio [3]: 296; Ratio [4]: 14; Ki [5]: 202 nM

For `C[C@H]1c2c([nH]c3ccccc23)[C@@H]2Oc3c(O)ccc4c3C23CCN(CC2CC2)C(C4)C13` (some centres not stated), which Ratio [3] is on record?
Its Ratio is 29.
